Measured values reported in article PMC10492809, “A Bischler-Napieralski and homo-Mannich sequence enables diversified syntheses of sarpagine alkaloids and analogues” (Nature Communications, 2023).
Where “and” joins values, the source holds several entries; their conditions need not be identical. Equal entries are not always repeated. Where two headings read alike, the source gives them in different places.

How the values were obtained:
Assay type in all cases: cell-based
MDA-MB-231 cells = experiment: Cell death manner assay (MTT, co-incubation with cell death inhibitors); settings: Fer-1 / NAC experiment; 15ai 10 μM, Fer-1 10 μM, NAC 5 mM, 72 h; single replicates
Description: [The source words this procedure for another cell line and reports this cell line under the same test.] To investigate the mechanism of 15ai in cancer cell proliferation inhibition, the manners of cell death were analyzed. The cell apoptosis inhibitor Z-VAD-FMK (Z-VAD), cell necrosis inhibitor Necrostatin-1 (Necro-1), ferroptosis inhibitor Ferrostatin-1 (Fer-1), and ROS inhibitor N-acetylcysteine (NAC) were purchased and stored at −20 °C. A375 cells were seeded with a density of 5000 cells/100 µL/well into 96 well plates. After 12 h, 15ai was added at different concentrations. Following that 10 µM Z-VAD, 10 µM Nerco-1, 10 µM Fer-1, and 5 mM NAC were added and co-incubated with 15ai, respectively, for 72 h. Then, 20 µL MTT solution (5 mg/mL) was added and incubated at 37 °C for an additional 4 h. Then, the supernatant was discarded, and 200 μL DMSO was added to dissolve the precipitate. After 15 min, the absorbance (OD490) was read on a microplate reader (SpectraMax i3x, Austria). In all experiments, three replicate wells were used for each drug concentration. Each assay was performed at least three times.

cancer cell lines = experiment: In vitro cancer cell assays (antiproliferation, cell line not given); settings: for loss in antiproliferation activity on replacing the aldehyde group: SAR statement in words; for antiproliferation activity in the in vitro cancer cell assays: result in words
Description: (§1) All cell lines were cultured at 37 °C with 5% CO2 in a humidified incubator. HeLa cells were grown in MEM (Gibco) supplemented with 10% fetal bovine serum (FBS, Hyclone) and 1% penicillin/streptomycin (Gibco). MIA PaCa-2, MDA-MB-231, A549, MCF-7, A375 and BEAS-2B cells were grown in DMEM (Gibco) supplemented with 10% FBS and 1% penicillin/streptomycin. CT26, and HCT116 cells were grown in RPMI-1640 supplemented with 10% FBS and 1% penicillin/streptomycin. All cell lines were purchased from the National Collection of Authenticated Cell Cultures (China).
(§2) The antiproliferative activities of the prepared compounds against tested cell lines were evaluated using a standard (MTT)-based colorimetric assay. Cells were plated at a density of 3000 cells/well in 96-well plates and allowed to adhere overnight. Then cells were treated with varying concentrations of synthesized compounds for 72 h. At the end of treatment, 20 μL of thiazolyl blue tetrazolium bromide (MTT) solution (5 mg/mL) was added to each well. Cells were incubated for an additional 4 h at 37 °C and then the medium was removed and replaced with 200 μL of DMSO. The absorbance (OD490) was read on a microplate reader (SpectraMax i3x, Molecular Devices, US). In all experiments, three replicate wells were used for each drug concentration. Each assay was performed at least three times. The IC50 values were calculated by GraphPad Prism 9, which were the mean values derived from three independent experiments.

[1] = tested on: lung epithelial BEAS-2B cells; experiment: MTT cytotoxicity towards normal cells, BEAS-2B
Description: as §1, §2

MCF-7 = experiment: MTT cell viability assay, MCF-7
Description: as §1, §2

A549 = experiment: MTT cell viability assay, A549
Description: as §1, §2

Hela = experiment: MTT cell viability assay, Hela
Description: as §1, §2

MIA PaCa-2 = experiment: MTT cell viability assay, MIA PaCa-2
Description: as §1, §2

CT26 = experiment: MTT cell viability assay, CT26
Description: as §1, §2

HCT 116 = experiment: MTT cell viability assay, HCT 116
Description: as §1, §2

A375 = experiment: MTT cell viability assay, A375
Description: as §1, §2

MDA-MB-231 = experiment: MTT cell viability assay, MDA-MB-231
Description: as §1, §2

[2] = MTT cytotoxicity towards normal cells, BEAS-2B; settings: human; for IC50 at 72 h: BEAS-2B lung epithelial cells (normal cells), source data sheet, single values of three experiments; for CC50 at 72 h: BEAS-2B lung epithelial cells, MTT, cytotoxicity towards normal cells, mean of at least three independent experiments
Description: as §1, §2

[3] = source data sheet, single values of three experiments, read-out: MTT IC50 MCF-7
[4] = source data sheet, single values of three experiments, read-out: MTT IC50 A549
[5] = source data sheet, single values of three experiments, read-out: MTT IC50 Hela
[6] = source data sheet, single values of three experiments, read-out: MTT IC50 MIA PaCa-2
[7] = source data sheet, single values of three experiments, read-out: MTT IC50 CT-26
[8] = source data sheet, single values of three experiments, read-out: MTT IC50 HCT-116
[9] = source data sheet, single values of three experiments, read-out: MTT IC50 A375
[10] = source data sheet, single values of three experiments, read-out: MTT IC50 MDA-MB-231
[11] = Homo sapiens, MCF7, 72 h, MTT, 72 h, mean of at least three independent experiments, read-out: IC50 MCF-7
[12] = Homo sapiens, MCF7, source data sheet, single values of three experiments, read-out: MTT IC50 MCF-7
[13] = Homo sapiens, A549, 72 h, MTT, 72 h, mean of at least three independent experiments, read-out: IC50 A549
[14] = Homo sapiens, A549, source data sheet, single values of three experiments, read-out: MTT IC50 A549
[15] = Homo sapiens, HeLa, 72 h, MTT, 72 h, mean of at least three independent experiments, read-out: IC50 Hela
[16] = Homo sapiens, HeLa, source data sheet, single values of three experiments, read-out: MTT IC50 Hela
[17] = Homo sapiens, MIA PaCa-2, 72 h, MTT, 72 h, mean of at least three independent experiments, read-out: IC50 MIA PaCa-2
[18] = Homo sapiens, MIA PaCa-2, source data sheet, single values of three experiments, read-out: MTT IC50 MIA PaCa-2
[19] = Mus musculus, CT26, 72 h, MTT, 72 h, mean of at least three independent experiments, read-out: IC50 CT26
[20] = Mus musculus, CT26, source data sheet, single values of three experiments, read-out: MTT IC50 CT-26
[21] = Homo sapiens, HCT-116, 72 h, MTT, 72 h, mean of at least three independent experiments, read-out: IC50 HCT 116
[22] = Homo sapiens, HCT-116, source data sheet, single values of three experiments, read-out: MTT IC50 HCT-116
[23] = Homo sapiens, A-375, 72 h, MTT, 72 h, mean of at least three independent experiments, read-out: IC50 A375
[24] = Homo sapiens, A-375, source data sheet, single values of three experiments, read-out: MTT IC50 A375
[25] = Homo sapiens, MDA-MB-231, 72 h, MTT, 72 h, mean of at least three independent experiments, read-out: IC50 MDA-MB-231
[26] = Homo sapiens, MDA-MB-231, source data sheet, single values of three experiments, read-out: MTT IC50 MDA-MB-231

CC(=O)N[C@@H](CS)C(=O)O [NAC, N-acetylcysteine, reference compound]
Percentage of viability (MDA-MB-231 cells): 108.212% and 96.8182% and 102.046%

C=C=C1CN2[C@H]3C[C@H]1[C@H](C(=O)O)[C@@H]2Cc1c3n(S(=O)(=O)c2ccc(C)cc2)c2ccccc12 [Compound 15an]
loss in antiproliferation activity on replacing the aldehyde group (cancer cell lines): complete

CC=C1CN2C3CC1C(C=O)C2Cc1c3n(S(=O)(=O)c2ccc(C)cc2)c2ccccc12 (stereo not shown) [Compound 15ar]
CC50 ([1]; MTT, 72 h, cytotoxicity towards normal cells, mean of at least three independent experiments): > 100 µM
IC50 ([1]; source data sheet, single values of three experiments): > 100 µM
IC50 (MCF-7; MTT, 72 h, mean of at least three independent experiments, read-out: IC50 MCF-7): 17.8 µM
IC50 (MCF-7; [3]): 19.9 µM and 15.7 µM and 17.7 µM
IC50 (A549; MTT, 72 h, mean of at least three independent experiments, read-out: IC50 A549): 14.1 µM
IC50 (A549; [4]): 16.5 µM and 14 µM and 11.7 µM
IC50 (Hela; MTT, 72 h, mean of at least three independent experiments, read-out: IC50 Hela): 6.16 µM
IC50 (Hela; [5]): 7.46 µM and 6.04 µM and 4.98 µM
IC50 (MIA PaCa-2; MTT, 72 h, mean of at least three independent experiments, read-out: IC50 MIA PaCa-2): 13.3 µM
IC50 (MIA PaCa-2; [6]): 14.9 µM and 13 µM and 12 µM
IC50 (CT26; MTT, 72 h, mean of at least three independent experiments, read-out: IC50 CT26): 9.39 µM
IC50 (CT26; [7]): 10.9 µM and 8.18 µM and 9.11 µM
IC50 (HCT 116; MTT, 72 h, mean of at least three independent experiments, read-out: IC50 HCT 116): 6.96 µM
IC50 (HCT 116; [8]): 8.05 µM and 5.83 µM and 7.01 µM
IC50 (A375; MTT, 72 h, mean of at least three independent experiments, read-out: IC50 A375): 4.54 µM
IC50 (A375; [9]): 5.71 µM and 3.87 µM and 4.03 µM
IC50 (MDA-MB-231; MTT, 72 h, mean of at least three independent experiments, read-out: IC50 MDA-MB-231): 4.63 µM
IC50 (MDA-MB-231; [10]): 5.08 µM and 4.02 µM and 4.8 µM

C=C=C1CN2[C@H]3C[C@H]1[C@H](C=O)[C@@H]2Cc1c3n(S(=O)(=O)c2ccc(C(F)(F)F)cc2)c2ccccc12 [Compound 15am]
IC50 (cancer cell lines; cell line not given): > 50 µM

C=C=C1CN2[C@H]3C[C@H]1[C@H](CO)[C@@H]2Cc1c3n(S(=O)(=O)c2ccc(C)cc2)c2ccccc12 [Compound 15ao]
loss in antiproliferation activity on replacing the aldehyde group (cancer cell lines): complete

CC=C1CN2C3CC1C(C=O)C2Cc1c3n(C)c2ccccc12 (stereo not shown) [Na-methylvellosimine (5), Na-methylvellosimine]
IC50 at 72 h [2]: > 100 µM
CC50 at 72 h [2]: > 100 µM
IC50 (MCF-7; [11]): 41.8 µM
IC50 (MCF-7; [12]): 44.7 µM
IC50 (MCF-7; [3]): 40.8 µM and 39.9 µM
IC50 (A549; [13]): 20.9 µM
IC50 (A549; [14]): 23.1 µM
IC50 (A549; [4]): 19 µM and 20.4 µM
IC50 (Hela; [15]): 22.3 µM
IC50 (Hela; [16]): 24.5 µM
IC50 (Hela; [5]): 21.9 µM and 20.4 µM
IC50 (MIA PaCa-2; [17]): 26.7 µM
IC50 (MIA PaCa-2; [18]): 29.2 µM
IC50 (MIA PaCa-2; [6]): 23.5 µM and 27.3 µM
IC50 (CT26; [19]): 21.4 µM
IC50 (CT26; [20]): 19.6 µM
IC50 (CT26; [7]): 20.7 µM and 23.8 µM
IC50 (HCT 116; [21]): 23.6 µM
IC50 (HCT 116; [22]): 25.2 µM
IC50 (HCT 116; [8]): 22.5 µM and 23 µM
IC50 (A375; [23]): 27.6 µM
IC50 (A375; [24]): 29.2 µM
IC50 (A375; [9]): 25.9 µM and 27.8 µM
antiproliferation activity in the in vitro cancer cell assays (cancer cell lines): moderate antiproliferation activity
IC50 (MDA-MB-231; [25]): 20.7 µM
IC50 (MDA-MB-231; [26]): 20.4 µM
IC50 (MDA-MB-231; [10]): 22.8 µM and 18.8 µM

CC=C1CN2C3CC1C(C=O)C2Cc1c3[nH]c2ccccc12 (stereo not shown) [vellosimine (4), vellosimine]
IC50 at 72 h [2]: > 100 µM
CC50 at 72 h [2]: > 100 µM
IC50 (MCF-7; [11]): 39.2 µM
IC50 (MCF-7; [12]): 38.9 µM
IC50 (MCF-7; [3]): 42.7 µM and 36 µM
IC50 (A549; [13]): 23.2 µM
IC50 (A549; [14]): 22.2 µM
IC50 (A549; [4]): 26.1 µM and 21.4 µM
IC50 (Hela; [15]): 24.1 µM
IC50 (Hela; [16]): 27.5 µM
IC50 (Hela; [5]): 22.6 µM and 22.2 µM
IC50 (MIA PaCa-2; [17]): 32.6 µM
IC50 (MIA PaCa-2; [18]): 35.9 µM
IC50 (MIA PaCa-2; [6]): 29.6 µM and 32.2 µM
IC50 (CT26; [19]): 20.2 µM
IC50 (CT26; [20]): 18.9 µM
IC50 (CT26; [7]): 23.2 µM and 18.5 µM
IC50 (HCT 116; [21]): 27.5 µM
IC50 (HCT 116; [22]): 29.6 µM
IC50 (HCT 116; [8]): 25.2 µM and 27.8 µM
IC50 (A375; [23]): 28.6 µM
IC50 (A375; [24]): 32.1 µM
IC50 (A375; [9]): 26.2 µM and 27.5 µM
antiproliferation activity in the in vitro cancer cell assays (cancer cell lines): moderate antiproliferation activity
IC50 (MDA-MB-231; [25]): 21.2 µM
IC50 (MDA-MB-231; [26]): 23 µM
IC50 (MDA-MB-231; [10]): 18.2 µM and 22.2 µM
